Experiment [1] deals with Escherichia coli cefazolin-resistant bacteria. As to the kind of experiment: survival rate with single amino acids or amino acid combination in synergy with cefazolin. The experiment is classed as cell-based. On the procedure:
Each amino acid in 2 mM compound amino acids was added alone with a corresponding concentration, and through survival rate of bacteria, it was studied improvement on sensitivity of bacteria to antibiotics when each amino acid was in synergy with cefazolin.

Experiment [2] concerns ampicillin-resistant bacteria (K12-RAMP). Nature of the experiment: survival rate of bacteria, compound amino acids in synergy with ampicillin. The experiment is classed as cell-based, Escherichia coli. The following applies: ampicillin 2000 μg/mL; second of 8 values, taken as ampicillin without compound amino acids. Here is the method:
Taking Escherichia coli sensitive bacteria K12 and artificially passaged ampicillin-resistant bacteria (K12-RAMP) as research objects, for the former, concentration of ampicillin was 40 μg/mL, and for the latter, concentration of ampicillin was 2000 μg/mL. It was investigated effects of 0.125, 0.5, 2.0, 8.0, 32, and 64 mM compound amino acids in synergy with antibiotics of the above concentrations on survival rates of sensitive bacteria and corresponding resistant bacteria.

In experiment [3] the test system is Escherichia coli sensitive bacteria K12. Nature of the experiment: survival rate of bacteria by plate count, compound amino acids in synergy with antibiotics. The following applies: for survival rate of bacteria: first of 7 values, taken as no compound amino acids. It counts as cell-based.
Experiment [4] concerns balofloxacin-resistant bacteria (K12-RBLFX). Nature of the experiment: survival rate of bacteria, compound amino acids in synergy with balofloxacin. It counts as cell-based, Escherichia coli. The following applies: balofloxacin 25 μg/mL; second of 8 values, taken as balofloxacin without compound amino acids. On the procedure:
Taking Escherichia coli sensitive bacteria K12 and balofloxacin-resistant artificially passaged resistant bacteria (K12-RBLFX) as research objects, for the former, concentration of balofloxacin was 0.2 μg/mL, and for the latter, concentration of balofloxacin was 25 μg/mL. It was investigated effects of compound amino acids of different concentrations in synergy with antibiotics of the above concentrations on survival rates of sensitive bacteria and corresponding resistant bacteria.

The test system of experiment [5] is resistant bacteria K12-RCZO. It counts as cell-based, Escherichia coli. Here is the method:
Preparation of bacterial samples: monoclonal bacteria of sensitive bacteria K12 or resistant bacteria K12-RCZO were picked and inoculated in 50 mL LB liquid medium respectively. After incubation for 17 h at 37° C. and 200 rpm, bacterial cells were collected by centrifugation at 8000 rpm for 4 min; the bacterial cells were washed twice with 0.85% normal saline, suspended in 1×M9 medium, adjusted to OD600 as 0.6, and then dispensed 5 mL into test tubes for subsequent experimental research.
Each of prepared bacterial samples was divided into 4 groups: control group, group of 2 mM 5% compound amino acids added only, and group of cefazolin antibiotics added only (a concentration being 80 μg/mL for sensitive bacteria K12, and a concentration being 2 mg/mL for resistant bacteria K12-RCZO), and group of cefazolin and 2 mM compound amino acids added. Bacteria were incubated at 37° C. and 200 rpm for 6 h, and then 100 μL was taken for doubling dilution, and 10 μL of bacterial solution was taken therefrom for plate count to calculate a survival rate of bacteria; results are shown in FIG. 3.
In order to explore the relationship between compound amino acids improving sensitivity of resistant bacteria to antibiotics and antibiotic concentration, 8 cefazolin concentration gradients (0, 62.5, 125, 250, 500, 1,000, 2,000 and 4,000 μg/mL) were set up; then, 2 mM compound amino acids were added or not added, respectively, after 6 h, plate count method was used to count viable bacteria; under the same antibiotics concentration, survival rates of bacteria when compound amino acids not added (control) and after compound amino acids added were compared.

Experiment [6] deals with Escherichia coli cefazolin-resistant bacteria (K12-RCZO). Nature of the experiment: MIC against cefazolin. It counts as cell-based. The text has this:
(§1) Escherichia coli (E. coli) is one of the most common bacteria in clinical practice. 35 Escherichia coli strains clinically obtained were named as Y1 to Y12, Y15 to Y24, Y27, Y28, and Y30 to Y40. The minimum inhibitory concentration (MIC) of these 35 Escherichia coli strains clinically obtained against cefazolin antibiotics was detected according to the NCCLS method, at the same time, Escherichia coli sensitive bacteria K12 and cefazolin-resistant bacteria K12-RCZO were used as controls to determine the MIC.

For experiment [7], the system named is Escherichia coli sensitive bacteria K12. Nature of the experiment: MIC against cefazolin. The experiment is classed as cell-based.
Description: as §1

The next experiment has as its system Vibrio parahaemolyticus. As to the kind of experiment: survival rate, compound amino acids in synergy with cefazolin. The experiment is classed as cell-based. The following applies: cefazolin 80 μg/mL without compound amino acids, 6 h. Here is the method:
(§2) Other Gram-negative bacteria such as Vibrio alginolyticus, Vibrio parahaemolyticus, and Pseudomonas aeruginosa, and Gram-positive bacteria Bacillus subtilis were selected as research objects to investigate bactericidal effect of compound amino acids in synergy with cefazolin; among them, concentration of compound amino acids was 2 mM, concentration of cefazolin was 80 μg/mL, and incubation time was 6 h, a relative survival rate of bacteria was calculated.

A further experiment has as its system Vibrio alginolyticus. The experiment is described as above. The following applies: cefazolin 80 μg/mL without compound amino acids, 6 h. It counts as cell-based. Here is the method:
as §2

Another experiment has as its system Pseudomonas aeruginosa. The experiment is described as above. The experiment is classed as cell-based. The following applies: cefazolin 80 μg/mL without compound amino acids, 6 h. On the procedure: as §2
A further experiment deals with Bacillus subtilis. Described as above. It counts as cell-based. The following applies: cefazolin 80 μg/mL without compound amino acids, 6 h. Here is the method:
as §2

Experiment [8] deals with Escherichia coli strains clinically obtained. Nature of the experiment: MIC against cefazolin (NCCLS method). It counts as cell-based.
Description: as §1

≈ marks a conversion by molar mass, not a printed value. Read-outs that look alike come from different tables or passages of the source. Some results are limits rather than exact numbers.

In the case of `C[C@H](N)C(=O)O` [alanine], the survival rate in experiment [1] (amino acid alone at 404 μM in synergy with cefazolin) is 73.6%.
On to `CC1(C)S[C@@H]2[C@H](NC(=O)[C@H](N)c3ccccc3)C(=O)N2[C@H]1C(=O)O` [ampicillin], for which the survival rate in [2] is recorded as 87.2%; in experiment [3] (ampicillin 40 μg/mL, second of 8 values, taken as ampicillin without compound amino acids), 86.7%.
Turning to `N=C(N)NCCC[C@H](N)C(=O)O` [arginine], the survival rate in [1] (amino acid alone at 140 μM in synergy with cefazolin) was 97.3%.
For the compound `N[C@@H](CC(=O)O)C(=O)O` [aspartate], the survival rate in [1] (amino acid alone at 56 μM in synergy with cefazolin) was determined as 94.5%.
As to `CNC1CCCN(c2c(F)cc3c(=O)c(C(=O)O)cn(C4CC4)c3c2OC)C1` (centres unmarked) [balofloxacin], the survival rate in [4] was 90.2%.
Consider `Cc1nnc(SCC2=C(C(=O)O)N3C(=O)[C@@H](NC(=O)Cn4cnnn4)[C@H]3SC2)s1` [cefazolin], for which the survival rate in experiment [3] (cefazolin 80 μg/mL, compound amino acids 0 mM, 6 h) is 89.6%; in experiment [5] (cefazolin 1,000 μg/mL, compound amino acids 0 mM, 6 h) it was 92.6%; with Vibrio parahaemolyticus it was 79.3%; with Vibrio alginolyticus, 62.1%; with Pseudomonas aeruginosa, 85.9%; in the experiment with Bacillus subtilis, 58.0%. The “survival rate of bacteria” value in experiment [5] (as printed in b79: K12-RCZO, compound amino acids 0 mM, 1000 μg/mL cefazolin (results of FIG. 4)) is 89.6%; in experiment [5] (cefazolin 62.5 μg/mL, compound amino acids not added, 6 h) it was 87.5%; in experiment [5] (cefazolin 125 μg/mL, compound amino acids not added, 6 h), 96.9%; in experiment [5] (cefazolin 250 μg/mL, compound amino acids not added, 6 h) it was 83.3%; in experiment [5] (cefazolin 500 μg/mL, compound amino acids not added, 6 h), 78.6%; in [5] (cefazolin 1,000 μg/mL, compound amino acids not added, 6 h), 83.3%. For the same compound, the “survival rate of bacteria” value in experiment [5] (cefazolin 2,000 μg/mL, compound amino acids not added, 6 h) worked out at 84.4%; in experiment [5] (cefazolin 4,000 μg/mL, compound amino acids not added, 6 h), 69.8%; in experiment [1] (M9 control group with antibiotics added (1 mg/mL cefazolin), 6 h), 45.9%; in [1] (only cefazolin is added), 85.04%. Further, the minimum inhibitory concentration (MIC) in experiment [6] (Escherichia coli, read-out: MIC against cefazolin) was 80 µg/mL (≈ 176 µM); in experiment [7] it was 1.25 µg/mL (≈ 2.75 µM); in [8] (37% of the remaining clinical Escherichia coli resistant bacteria) it was more than 640 µg/mL; in [8] (clinical strain Y1), 40 µg/mL (≈ 88 µM); in [8] (clinical strain Y3), 2.5 µg/mL (≈ 5.5 µM); in experiment [8] (clinical strain Y5), 10 µg/mL (≈ 22 µM). Also, the minimal inhibitory concentration (MIC) in [8] (clinical strain Y6) stood at 40 µg/mL (≈ 88 µM); in experiment [8] (clinical strain Y7), 2.5 µg/mL (≈ 5.5 µM); in experiment [8] (clinical strain Y8) it was 5 µg/mL (≈ 11 µM); in [8] (clinical strain Y11) it was 10 µg/mL (≈ 22 µM); in [8] (clinical strain Y12) it was 40 µg/mL (≈ 88 µM); in experiment [8] (clinical strain Y15), 5 µg/mL (≈ 11 µM). Besides, the minimum inhibitory concentration (MIC) in [8] (clinical strain Y16) was determined as 5 µg/mL (≈ 11 µM); in experiment [8] (clinical strain Y17), 10 µg/mL (≈ 22 µM); in experiment [8] (clinical strain Y18), 20 µg/mL (≈ 44 µM); in experiment [8] (clinical strain Y19) it was 5 µg/mL (≈ 11 µM); in experiment [8] (clinical strain Y20), 20 µg/mL (≈ 44 µM); in experiment [8] (clinical strain Y21) it was 20 µg/mL (≈ 44 µM). For the same compound, the minimal inhibitory concentration (MIC) in experiment [8] (clinical strain Y22) is 5 µg/mL (≈ 11 µM); in [8] (clinical strain Y23), 2.5 µg/mL (≈ 5.5 µM); in [8] (clinical strain Y24), 20 µg/mL (≈ 44 µM); in [8] (clinical strain Y28) it was 5120 µg/mL (≈ 11300 µM); in experiment [8] (clinical strain Y32) it was 5120 µg/mL (≈ 11300 µM); in [8] (clinical strain Y36), 5120 µg/mL (≈ 11300 µM). Besides, the MIC in experiment [8] (clinical strain Y40) was 20 µg/mL (≈ 44 µM). For the same compound, in experiment [6] (K12-RCZO vs K12), the “MIC relative to that of the starting strain” value is listed as 64 times.
On to `CO/N=C(\C(=O)N[C@@H]1C(=O)N2C(C(=O)O)=C(CSC(=O)c3ccco3)CS[C@H]12)c1csc(N)n1` [ceftiofur], for which the “survival rate of bacteria” value in [3] (ceftiofur 200 μg/mL, 6 h) is on record as 61.9%.
As to `CO/N=C(\C(=O)N[C@@H]1C(=O)N2C(C(=O)O)=C(CSc3nc(=O)c(=O)[nH]n3C)CS[C@H]12)c1csc(N)n1` [ceftriaxone], the “survival rate of bacteria” value in experiment [3] (ceftriaxone 10 μg/mL, 6 h) was 73.1%.
As for `N[C@@H](CSSC[C@H](N)C(=O)O)C(=O)O` [cystine], in [1] (amino acid alone at 4 μM in synergy with cefazolin), the survival rate is reported as 94.1%.
As for `N[C@@H](CCC(=O)O)C(=O)O` [glutamic acid], in experiment [1] (amino acid alone at 85 μM in synergy with cefazolin), the survival rate came out at 94.5%.
As to `NCC(=O)O` [glycine], the survival rate in [1] (amino acid alone at 233 μM in synergy with cefazolin) turned out to be 71.4%.
Turning to `N[C@@H](Cc1c[nH]cn1)C(=O)O` [histidine], the survival rate in experiment [1] (amino acid alone at 96 μM in synergy with cefazolin) was determined as 97.6%.
With `CC[C@H](C)[C@H](N)C(=O)O` [isoleucine], the survival rate in [1] (amino acid alone at 95 μM in synergy with cefazolin) came to 69.6%.
For `CC(C)C[C@H](N)C(=O)O` [leucine], in experiment [1] (amino acid alone at 129 μM in synergy with cefazolin), the survival rate was determined as 75.7%.
Take `CC(=O)O.NCCCC[C@H](N)C(=O)O` [lysine acetate]: in [1] (amino acid alone at 133 μM in synergy with cefazolin), the survival rate amounted to 68.6%.
Turning to `CSCC[C@H](N)C(=O)O` [methionine], the survival rate in [1] (amino acid alone at 83 μM in synergy with cefazolin) is reported as 91.5%.
Consider `N[C@@H](Cc1ccccc1)C(=O)O` [phenylalanine], for which the survival rate in [1] (amino acid alone at 106 μM in synergy with cefazolin) was 98.8%.
Take `O=C(O)[C@@H]1CCCN1` [proline]: the survival rate in experiment [1] (amino acid alone at 126 μM in synergy with cefazolin) came out at 85.4%.
Turning to `N[C@@H](CO)C(=O)O` [serine], the survival rate in experiment [1] (amino acid alone at 47 μM in synergy with cefazolin) was determined as 67.9%.
With `C[C@@H](O)[C@H](N)C(=O)O` [threonine], the survival rate in experiment [1] (amino acid alone at 105 μM in synergy with cefazolin) came out at 59.4%.
As for `N[C@@H](Cc1c[nH]c2ccccc12)C(=O)O` [tryptophan], the survival rate in experiment [1] (amino acid alone at 20 μM in synergy with cefazolin) is 67.4%.
Take `N[C@@H](Cc1ccc(O)cc1)C(=O)O` [tyrosine]: in [1] (amino acid alone at 5 μM in synergy with cefazolin), the survival rate came out at 80.5%.
Regarding `CC(C)[C@H](N)C(=O)O` [valine], the survival rate in experiment [1] (amino acid alone at 136 μM in synergy with cefazolin) came out at 78.8%.

The MIC is the smallest concentration in the dilution series that meets the test's criterion for growth inhibition.

The values above are taken from US12427129B2, “Application of compound amino acids in preparation of medicament for improving sensitivity of bacteria to antibiotics” (SUN YAT-SEN UNIVERSITY, priority 2020, dated 2025).
